Assay results published in PMC8968748 (Journal of medicinal chemistry, 2021).
Read-outs that look alike come from different tables or passages of the source. One block for each compound: values may come before it.

Experiments:
IDH1 R132H = IDH1 R132H (Homo sapiens, UniProt O75874, R132H); assay: diaphorase/resazurin-coupled mIDH1 R132H enzyme assay; type: biochemical; conditions: for IC50: average of N = 3, reported only where ≥75% inhibition at 38 μM; for mIDH1 inhibitory activity: R132H and R132C mIDH1, Table 2 is an image; for fold improvement in potency compared to analog 70: mIDH1 R132H, relative to 70; for IDH1 R132H IC50 Fold improvement over 87: relative to compound 87
[1] = Parallel artificial membrane permeability assay; type: in vitro ADME; conditions: pH 7.4
IDH1 R132C = IDH1 R132C (Homo sapiens, UniProt O75874, R132C); assay: diaphorase/resazurin-coupled mIDH1 R132C enzyme assay; type: biochemical; conditions: for IDH1 R132C IC50 Fold improvement over 87: relative to compound 87
Chain of IDH1 R132C (O75874 whole entry R132C): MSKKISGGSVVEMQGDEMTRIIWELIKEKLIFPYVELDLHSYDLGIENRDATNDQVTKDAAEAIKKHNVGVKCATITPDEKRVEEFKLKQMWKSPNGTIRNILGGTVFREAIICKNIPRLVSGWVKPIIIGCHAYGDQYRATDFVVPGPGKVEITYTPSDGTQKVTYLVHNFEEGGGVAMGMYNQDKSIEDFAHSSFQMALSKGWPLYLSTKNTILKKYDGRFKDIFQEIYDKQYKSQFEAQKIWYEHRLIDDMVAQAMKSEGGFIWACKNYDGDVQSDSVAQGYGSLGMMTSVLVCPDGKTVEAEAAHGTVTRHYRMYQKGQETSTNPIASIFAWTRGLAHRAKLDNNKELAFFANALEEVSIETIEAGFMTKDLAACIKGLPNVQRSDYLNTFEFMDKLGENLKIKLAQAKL

Chain of IDH1 R132H (O75874 whole entry R132H): as the sequence (O75874 whole entry R132C) above, with C132H counted along it

- mIDH1 inhibitory activity (IDH1 R132H): completely inactive
Compound: COc1ccc(OC)c(-n2c(C)ccc(-c3nc(-c4ccc(Cl)cc4)cs3)c2=O)c1 [Compound 3, 3-(4-(4-Chlorophenyl)thiazol-2-yl)-1-(2,5-dimethoxyphenyl)-6-methylpyridin-2(1H)-one]

- IC50 (IDH1 R132H; IDH1 R132H IC50(μM) ± SD): 0.51 ± 0.03 µM
Compound: CCOc1ccccc1-n1c2c(cc(-c3nc(-c4ccc(Cl)cc4)cs3)c1=O)C(=O)CC(C)(C)C2 [Compound 29, 3-(4-(4-Chlorophenyl)thiazol-2-yl)-1-(2-ethoxyphenyl)-7,7-dimethyl-7,8-dihydroquinoline-2,5(1H,6H)-dione]

- IC50 (IDH1 R132H; IDH1 R132H IC50(μM) ± SD): > 38 µM
- inhibition at 38 µM (IDH1 R132C; read-out: IDH1 R132C % inhibition ± SD at 38 μM): 34 ± 1%
Compound: CC(c1ccccc1)n1c2c(cc(-c3nc(-c4ccc(Cl)cc4)cs3)c1=O)C(=O)CC(C)(C)C2 (stereo not drawn) [Compound 48, 3-(4-(4-Chlorophenyl)thiazol-2-yl)-7,7-dimethyl-1-(1-phenylethyl)-7,8-dihydroquinoline-2,5(1H,6H)-dione]

- IC50 (IDH1 R132H; IDH1 R132H IC50(μM) ± SD): > 38 µM
Compound: COc1cc(C(=O)O)ccc1-n1c2c(cc(-c3nc(-c4ccc(Cl)cc4)cs3)c1=O)C(=O)CC(C)(C)C2 [Compound 57, 4-(3-(4-(4-Chlorophenyl)thiazol-2-yl)-7,7-dimethyl-2,5-dioxo-5,6,7,8-tetrahydroquinolin-1(2H)-yl)-3-methoxybenzoic acid]

- fold improvement in potency compared to analog 70 (IDH1 R132H): 3 fold
Compound: CCc1cccc(CC)c1-n1c(C)c(C(=O)NCCN)cc(-c2nc(-c3ccc(Cl)cc3)cs2)c1=O [Compound 78, N-(2-Aminoethyl)-5-(4-(4-chlorophenyl)thiazol-2-yl)-1-(2,6-diethylphenyl)-2-methyl-6-oxo-1,6-dihydropyridine-3-carboxamide]

- IDH1 R132H IC50 Fold improvement over 87 (IDH1 R132H): 2.8 fold
- PAMPA (10^−6 cm/s) [1]: 134 10^−6 cm/s
- IDH1 R132C IC50 Fold improvement over 87 (IDH1 R132C): 15 fold
Compound: CCCc1c(C(=O)N2CCNCC2)cc(-c2nc(-c3ccc(Cl)cc3)cs2)c(=O)n1-c1c(CC)cccc1CC [Compound 89, 3-(4-(4-Chlorophenyl)thiazol-2-yl)-1-(2,6-diethylphenyl)-5-(piperazine-1-carbonyl)-6-propylpyridin-2(1H)-one]

- IDH1 R132H IC50 Fold improvement over 87 (IDH1 R132H): 1.9 fold
- PAMPA (10^−6 cm/s) [1]: 16 10^−6 cm/s
- IDH1 R132C IC50 Fold improvement over 87 (IDH1 R132C): 13 fold
Compound: CCc1cccc(CC)c1-n1c(CC(C)C)c(C(=O)N2CCNCC2)cc(-c2nc(-c3ccc(Cl)cc3)cs2)c1=O [Compound 91, 3-(4-(4-Chlorophenyl)thiazol-2-yl)-1-(2,6-diethylphenyl)-6-isobutyl-5-(piperazine-1-carbonyl)pyridin-2(1H)-one]

- PAMPA (10^−6 cm/s) [1]: 40 10^−6 cm/s
Compound: CCc1cccc(CC)c1-n1c(C=C(C)C)c(C(=O)N2CCNCC2C)cc(-c2nc(-c3ccc(Cl)cc3)cs2)c1=O (stereo not drawn) [Compound 100, 3-(4-(4-Chlorophenyl)thiazol-2-yl)-1-(2,6-diethylphenyl)-5-(2-methylpiperazine-1-carbonyl)-6-(2-methylprop-1-en-1-yl)pyridin-2(1H)-one]

- PAMPA (10^−6 cm/s) [1]: 48 10^−6 cm/s
Compound: CCc1cccc(CC)c1-n1c(C=C(C)C)c(C(=O)N2CCNC3(CC3)C2)cc(-c2nc(-c3ccc(Cl)cc3)cs2)c1=O [Compound 103, 3-(4-(4-Chlorophenyl)thiazol-2-yl)-1-(2,6-diethylphenyl)-6-(2-methylprop-1-en-1-yl)-5-(4,7-diazaspiro[2.5]octane-7-carbonyl)pyridin-2(1H)-one]

- fold drop in R132H potency (IDH1 R132H; relative to 92): 7.5 fold
- fold drop in R132C potency (IDH1 R132C; relative to 92): 55 fold
Compound: CC(C)=Cc1c(C(=O)N2CCNCC2)cc(-c2nc(-c3ccc(Cl)cc3)cs2)c(=O)n1-c1ccccc1 [Compound 113, 3-(4-(4-Chlorophenyl)thiazol-2-yl)-6-(2-methylprop-1-en-1-yl)-1-phenyl-5-(piperazine-1-carbonyl)pyridin-2(1H)-one]

Further lines, the compound ahead of its results:

Compound: 3-(4-(4-Chlorophenyl)thiazol-2-yl)-1-(2-ethyl-6-methylphenyl)-6-(2-methylprop-1-en-1-yl)-5-(piperazine-1-carbonyl)pyridin-2(1H)-one [Compound 115]
- IC50 (IDH1 R132H; read-out: IDH1 R132H IC50(μM) ± SD): 0.27 µM

Compound: CCc1ccc(OC)cc1-n1c(C=C(C)C)c(C(=O)N2CCNCC2)cc(-c2nc(-c3ccc(Cl)cc3)cs2)c1=O (mixture of isomers) [Compound 118, 3-(4-(4-Chlorophenyl)thiazol-2-yl)-1-(2-ethyl-5-methoxyphenyl)-6-(2-methylprop-1-en-1-yl)-5-(piperazine-1-carbonyl)pyridin-2(1H)-one]
- PAMPA (10^−6 cm/s) [1]: 549 10^−6 cm/s

Compound: CCc1ccc(OC)cc1-n1c(C=C(C)C)c(C(=O)N2CCNCC2)cc(-c2nc(-c3ccc(Cl)cc3)cs2)c1=O (single isomer, unassigned) [(−)-118]
- IC50 (IDH1 R132H; IDH1 R132H IC50(μM) ± SD): 0.42 ± 0.05 µM

Compound: CCc1ccc(Cl)cc1-n1c(C=C(C)C)c(C(=O)N2CCNCC2)cc(-c2nc(-c3ccc(Cl)cc3)cs2)c1=O (single isomer, unassigned) [(−)-119]
- IC50 (IDH1 R132H; IDH1 R132H IC50(μM) ± SD): 0.25 ± 0.04 µM

Compound: COc1ccc(OC)c(-n2cccc(-c3nc(-c4ccc(Cl)cc4)cs3)c2=O)c1 [Compound 2, 3-(4-(4-Chlorophenyl)thiazol-2-yl)-1-(2,5-dimethoxyphenyl)pyridin-2(1H)-one]
- mIDH1 inhibitory activity (IDH1 R132H): completely inactive

Compound: COc1ccc(OC)c(-n2c3c(cc(-c4nc(-c5ccccc5)cs4)c2=O)C(=O)CC(C)(C)C3)c1 [Compound 11, 1-(2,5-Dimethoxyphenyl)-7,7-dimethyl-3-(4-phenylthiazol-2-yl)-7,8-dihydroquinoline-2,5(1H,6H)-dione]
- mIDH1 inhibitory activity (IDH1 R132H): essentially equipotent to 1 against R132H mIDH1

Compound: COc1ccc(OC)c(-n2c3c(cc(-c4cccc(-c5ccc(Cl)cc5)c4)c2=O)C(=O)CC(C)(C)C3)c1 [Compound 23, 3-(4’-Chloro-[1,1’-biphenyl]-3-yl)-1-(2,5-dimethoxyphenyl)-7,7-dimethyl-7,8-dihydroquinoline-2,5(1H,6H)-dione]
- mIDH1 inhibitory activity (IDH1 R132H): complete loss in mIDH1 inhibitory activity

Compound: COc1ccc(OC)c(-n2c3c(cc(-c4ccc(-c5ccccc5)cc4)c2=O)C(=O)CC(C)(C)C3)c1 [Compound 24, 3-([1,1’-Biphenyl]-4-yl)-1-(2,5-dimethoxyphenyl)-7,7-dimethyl-7,8-dihydroquinoline-2,5(1H,6H)-dione]
- mIDH1 inhibitory activity (IDH1 R132H): complete loss in mIDH1 inhibitory activity

Compound: COc1ccc(OC)c(-n2c3c(cc(-c4cccc(-c5ccc(Cl)cc5)n4)c2=O)C(=O)CC(C)(C)C3)c1 [Compound 25, 3-(6-(4-Chlorophenyl)pyridin-2-yl)-1-(2,5-dimethoxyphenyl)-7,7-dimethyl-7,8-dihydroquinoline-2,5(1H,6H)-dione]
- mIDH1 inhibitory activity (IDH1 R132H): retained some activity

Compound: CCc1cccc(CC)c1-n1c(C)c(C(=O)NCCO)cc(-c2nc(-c3ccc(Cl)cc3)cs2)c1=O [Compound 75, 5-(4-(4-Chlorophenyl)thiazol-2-yl)-1-(2,6-diethylphenyl)-N-(2-hydroxyethyl)-2-methyl-6-oxo-1,6-dihydropyridine-3-carboxamide]
- fold improvement in potency compared to analog 70 (IDH1 R132H): 3 fold

Compound: CCc1cccc(CC)c1-n1c(C=C(C)C)c(C(=O)N2CCNCC2)cc(-c2nc(-c3ccc(Cl)cc3)cs2)c1=O [Compound 92, 3-(4-(4-Chlorophenyl)thiazol-2-yl)-1-(2,6-diethylphenyl)-6-(2-methylprop-1-en-1-yl)-5-(piperazine-1-carbonyl)pyridin-2(1H)-one]
- IDH1 R132H IC50 Fold improvement over 87 (IDH1 R132H): 4.8 fold
- PAMPA (10^−6 cm/s) [1]: 225 10^−6 cm/s
- IDH1 R132C IC50 Fold improvement over 87 (IDH1 R132C): 26 fold

Compound: CCc1cccc(CC)c1-n1c(CC2CC2)c(C(=O)N2CCNCC2)cc(-c2nc(-c3ccc(Cl)cc3)cs2)c1=O [Compound 93, 3-(4-(4-Chlorophenyl)thiazol-2-yl)-6-(cyclopropylmethyl)-1-(2,6-diethylphenyl)-5-(piperazine-1-carbonyl)pyridin-2(1H)-one]
- IDH1 R132H IC50 Fold improvement over 87 (IDH1 R132H): 3.8 fold
- PAMPA (10^−6 cm/s) [1]: 43 10^−6 cm/s
- IDH1 R132C IC50 Fold improvement over 87 (IDH1 R132C): 31 fold

Compound: CCc1cccc(CC)c1-n1c(CC2CCNC2)c(C(=O)N2CCNCC2)cc(-c2nc(-c3ccc(Cl)cc3)cs2)c1=O (stereo not drawn) [Compound 98, 3-(4-(4-Chlorophenyl)thiazol-2-yl)-1-(2,6-diethylphenyl)-5-(piperazine-1-carbonyl)-6-(pyrrolidin-3-ylmethyl)pyridin-2(1H)-one]
- IDH1 R132H IC50 Fold improvement over 87 (IDH1 R132H): 2.8 fold
- PAMPA (10^−6 cm/s) [1]: 24 10^−6 cm/s
- IDH1 R132C IC50 Fold improvement over 87 (IDH1 R132C): 12 fold

Compound: CCc1cccc(CC)c1-n1c(C=C(C)C)c(C(=O)N2CCNC(=O)C2)cc(-c2nc(-c3ccc(Cl)cc3)cs2)c1=O [Compound 105, 4-(5-(4-(4-Chlorophenyl)thiazol-2-yl)-1-(2,6-diethylphenyl)-2-(2-methylprop-1-en-1-yl)-6-oxo-1,6-dihydropyridine-3-carbonyl)piperazin-2-one]
- PAMPA (10^−6 cm/s) [1]: 275 10^−6 cm/s

Compound: CCc1cccc(CC)c1-n1c(C=C(C)C)c(C(=O)N2CCNC(C(=O)O)C2)cc(-c2nc(-c3ccc(Cl)cc3)cs2)c1=O (stereo not drawn) [Compound 108, 4-(5-(4-(4-Chlorophenyl)thiazol-2-yl)-1-(2,6-diethylphenyl)-2-(2-methylprop-1-en-1-yl)-6-oxo-1,6-dihydropyridine-3-carbonyl)piperazine-2-carboxylic acid]
- PAMPA (10^−6 cm/s) [1]: <1 10^−6 cm/s

Compound: CCc1cccc(CC)c1-n1c(C=C(C)C)c(C(=O)N2C[C@H]3CC[C@@H](C2)N3)cc(-c2nc(-c3ccc(Cl)cc3)cs2)c1=O [Compound 111, 5-((1R,5S)-3,8-Diazabicyclo[3.2.1]octane-3-carbonyl)-3-(4-(4-chlorophenyl)thiazol-2-yl)-1-(2,6-diethylphenyl)-6-(2-methylprop-1-en-1-yl)pyridin-2(1H)-one]
- PAMPA (10^−6 cm/s) [1]: 89 10^−6 cm/s

Compound: CCc1cccc(CC)c1-n1c(C=C(C)C)c(C(=O)N2C3CCC2CNC3)cc(-c2nc(-c3ccc(Cl)cc3)cs2)c1=O [Compound 112, 5-(3,8-Diazabicyclo[3.2.1]octane-8-carbonyl)-3-(4-(4-chlorophenyl)thiazol-2-yl)-1-(2,6-diethylphenyl)-6-(2-methylprop-1-en-1-yl)pyridin-2(1H)-one]
- PAMPA (10^−6 cm/s) ([1]; PAMPA, 30 min, 0.05 mM): 99 10^−6 cm/s
